± gives the uncertainty stated by the source.
Assay: xn = mol fraction of the nth substance listed

BrC(Br)Br + Brc1ccccc1
viscosity [mPa·s]
Conditions	x1 = 0.1693	x1 = 0.1837	x1 = 0.3354	x1 = 0.3369	x1 = 0.5411	x1 = 0.5417	x1 = 0.6863	x1 = 0.6869	x1 = 0.8606	x1 = 0.871
298 K, 101.3 kPa	–	1.207 ± 0.016	–	1.333 ± 0.017	–	1.51 ± 0.02	–	1.627 ± 0.021	1.769 ± 0.023	–
318 K, 101.33 kPa	0.9504 ± 0.039	–	1.051 ± 0.039	–	1.179 ± 0.039	–	1.272 ± 0.039	–	–	1.396 ± 0.039

CCC(C)(C)OC + C1CCCC1
viscosity [mPa·s], 100 kPa
Conditions	x1 = 0.0512	x1 = 0.1014	x1 = 0.2107	x1 = 0.3001	x1 = 0.4033	x1 = 0.5001	x1 = 0.6006	x1 = 0.7352	x1 = 0.8928	x1 = 0.9498
293.15 K	0.429 ± 0.03	0.429 ± 0.03	0.431 ± 0.03	0.432 ± 0.03	0.434 ± 0.03	0.435 ± 0.03	0.436 ± 0.03	0.437 ± 0.03	0.439 ± 0.03	0.439 ± 0.03
303.15 K	0.386 ± 0.03	0.388 ± 0.03	0.392 ± 0.03	0.395 ± 0.03	0.398 ± 0.03	0.401 ± 0.03	0.404 ± 0.03	0.408 ± 0.03	0.413 ± 0.03	0.414 ± 0.03
313.15 K	0.349 ± 0.03	0.35 ± 0.03	0.353 ± 0.03	0.355 ± 0.03	0.357 ± 0.03	0.359 ± 0.03	0.361 ± 0.03	0.364 ± 0.03	0.367 ± 0.03	0.368 ± 0.03

BrC(Br)Br + C1CCCCC1
viscosity [mPa·s]
Conditions	x1 = 0.1747	x1 = 0.1851	x1 = 0.3427	x1 = 0.3428	x1 = 0.5476	x1 = 0.5486	x1 = 0.6899	x1 = 0.6911	x1 = 0.8718	x1 = 0.8747
298 K, 101.3 kPa	–	0.959 ± 0.01	–	1.071 ± 0.012	–	1.258 ± 0.014	1.409 ± 0.017	–	1.67 ± 0.021	–
318 K, 101.33 kPa	0.7236 ± 0.039	–	0.82 ± 0.039	–	0.9769 ± 0.039	–	–	1.113 ± 0.039	–	1.309 ± 0.039

CCCCCCCCO + C1CCCCC1
Conditions	viscosity [mPa·s]
293.15 K, 100 kPa, x2 = 0.0821	7.85 ± 0.63
293.15 K, 100 kPa, x2 = 0.1596	6.77 ± 0.54
293.15 K, 100 kPa, x2 = 0.2413	5.78 ± 0.46
293.15 K, 100 kPa, x2 = 0.3502	4.63 ± 0.37
293.15 K, 100 kPa, x2 = 0.4402	3.78 ± 0.3
293.15 K, 100 kPa, x2 = 0.5611	2.83 ± 0.23
293.15 K, 100 kPa, x2 = 0.6512	2.26 ± 0.18
293.15 K, 100 kPa, x2 = 0.7501	1.79 ± 0.14
293.15 K, 100 kPa, x2 = 0.8503	1.38 ± 0.11
293.15 K, 100 kPa, x2 = 0.9396	1.11 ± 0.09
303.15 K, 100 kPa, x2 = 0.0821	5.56 ± 0.45
303.15 K, 100 kPa, x2 = 0.1596	4.83 ± 0.39
303.15 K, 100 kPa, x2 = 0.2413	4.15 ± 0.33
303.15 K, 100 kPa, x2 = 0.3502	3.33 ± 0.27
303.15 K, 100 kPa, x2 = 0.4402	2.73 ± 0.22
303.15 K, 100 kPa, x2 = 0.5611	2.08 ± 0.17
303.15 K, 100 kPa, x2 = 0.6512	1.72 ± 0.14
303.15 K, 100 kPa, x2 = 0.7501	1.4 ± 0.11
303.15 K, 100 kPa, x2 = 0.8503	1.12 ± 0.09
303.15 K, 100 kPa, x2 = 0.9396	0.92 ± 0.07
303.15 K, 101.33 kPa, x1 = 0.1206	1.057 ± 0.013
303.15 K, 101.33 kPa, x1 = 0.221	1.301 ± 0.016
303.15 K, 101.33 kPa, x1 = 0.2975	1.52 ± 0.018
303.15 K, 101.33 kPa, x1 = 0.3517	1.697 ± 0.02
303.15 K, 101.33 kPa, x1 = 0.4355	2.023 ± 0.024
303.15 K, 101.33 kPa, x1 = 0.5414	2.518 ± 0.029
303.15 K, 101.33 kPa, x1 = 0.608	2.869 ± 0.033
303.15 K, 101.33 kPa, x1 = 0.755	3.829 ± 0.043
303.15 K, 101.33 kPa, x1 = 0.8637	4.746 ± 0.053
308 K, 101 kPa, x2 = 0.1494	4.134 ± 0.031
308 K, 101 kPa, x2 = 0.2768	3.348 ± 0.025
308 K, 101 kPa, x2 = 0.3962	2.659 ± 0.02
308 K, 101 kPa, x2 = 0.5076	2.09 ± 0.016
308 K, 101 kPa, x2 = 0.6146	1.64 ± 0.013
308 K, 101 kPa, x2 = 0.7054	1.36 ± 0.011
308 K, 101 kPa, x2 = 0.7911	1.132 ± 0.0089
308 K, 101 kPa, x2 = 0.8587	0.96 ± 0.0077
308 K, 101 kPa, x2 = 0.9354	0.828 ± 0.0067
313.15 K, 100 kPa, x2 = 0.0821	4.06 ± 0.33
313.15 K, 100 kPa, x2 = 0.1596	3.56 ± 0.29
313.15 K, 100 kPa, x2 = 0.2413	3.09 ± 0.25
313.15 K, 100 kPa, x2 = 0.3502	2.52 ± 0.2
313.15 K, 100 kPa, x2 = 0.4402	2.1 ± 0.17
313.15 K, 100 kPa, x2 = 0.5611	1.65 ± 0.13
313.15 K, 100 kPa, x2 = 0.6512	1.37 ± 0.11
313.15 K, 100 kPa, x2 = 0.7501	1.14 ± 0.09
313.15 K, 100 kPa, x2 = 0.8503	0.9 ± 0.07
313.15 K, 100 kPa, x2 = 0.9396	0.78 ± 0.06
323.15 K, 100 kPa, x2 = 0.0821	3.03 ± 0.24
323.15 K, 100 kPa, x2 = 0.1596	2.65 ± 0.21
323.15 K, 100 kPa, x2 = 0.2413	2.31 ± 0.19
323.15 K, 100 kPa, x2 = 0.3502	1.93 ± 0.16
323.15 K, 100 kPa, x2 = 0.4402	1.66 ± 0.13
323.15 K, 100 kPa, x2 = 0.5611	1.34 ± 0.11
323.15 K, 100 kPa, x2 = 0.6512	1.13 ± 0.09
323.15 K, 100 kPa, x2 = 0.7501	0.95 ± 0.08
323.15 K, 100 kPa, x2 = 0.8503	0.77 ± 0.06
323.15 K, 100 kPa, x2 = 0.9396	0.66 ± 0.05

C=Cc1ccccc1 + C1CCOC1
viscosity [mPa·s], 101.33 kPa
Conditions	x1 = 0.1011	x1 = 0.199	x1 = 0.3001	x1 = 0.401	x1 = 0.4963	x1 = 0.6002	x1 = 0.6993	x1 = 0.8017	x1 = 0.8979
298.15 K	0.514 ± 0.007	–	0.595 ± 0.008	0.632 ± 0.009	0.664 ± 0.009	0.695 ± 0.009	0.721 ± 0.01	0.742 ± 0.01	0.747 ± 0.01
303.15 K	0.49 ± 0.007	0.528 ± 0.008	0.562 ± 0.008	0.599 ± 0.008	0.625 ± 0.009	0.658 ± 0.009	0.677 ± 0.009	0.695 ± 0.009	0.699 ± 0.009
308.15 K	0.463 ± 0.007	0.498 ± 0.007	0.532 ± 0.008	0.564 ± 0.008	0.589 ± 0.008	0.616 ± 0.008	0.637 ± 0.009	0.652 ± 0.009	0.651 ± 0.009

C=Cc1ccccc1 + C1COCCO1
viscosity [mPa·s], 101.33 kPa
Conditions	x1 = 0.1012	x1 = 0.2139	x1 = 0.2989	x1 = 0.3996	x1 = 0.5054	x1 = 0.6016	x1 = 0.7019	x1 = 0.805	x1 = 0.9021
298.15 K	1.119 ± 0.028	1.069 ± 0.026	1.043 ± 0.026	1.005 ± 0.025	0.966 ± 0.024	0.929 ± 0.023	0.891 ± 0.022	0.853 ± 0.022	0.819 ± 0.021
303.15 K	1.034 ± 0.026	0.987 ± 0.025	0.959 ± 0.024	0.929 ± 0.023	0.893 ± 0.023	0.873 ± 0.022	0.829 ± 0.021	0.795 ± 0.02	0.766 ± 0.02
308.15 K	0.957 ± 0.024	0.915 ± 0.023	0.889 ± 0.023	0.862 ± 0.022	0.83 ± 0.021	0.802 ± 0.021	0.774 ± 0.02	0.744 ± 0.019	0.716 ± 0.019

CCCCCCCl + C1COCCO1
303.15 K, 101.3 kPa
Conditions	viscosity [mPa·s]
x2 = 0.1087	0.6686 ± 0.0045
x2 = 0.2953	0.7084 ± 0.0047
x2 = 0.5004	0.7719 ± 0.005
x2 = 0.6974	0.8637 ± 0.0055
x2 = 0.9013	1.004 ± 0.0063

CC12CC3CC(C1)CC(C)(C3)C2 + C1C[C@@H]2[C@H]3CC[C@H](C3)[C@@H]2C1
viscosity [mPa·s], 100 kPa
Conditions	x1 = 0.1021	x1 = 0.2015	x1 = 0.3018	x1 = 0.4005	x1 = 0.4981	x1 = 0.602	x1 = 0.6998	x1 = 0.8051	x1 = 0.8993
293.15 K	3.147 ± 0.026	3.237 ± 0.025	3.335 ± 0.024	3.436 ± 0.023	3.513 ± 0.022	3.592 ± 0.02	3.657 ± 0.019	–	3.747 ± 0.017
298.15 K	2.841 ± 0.024	2.922 ± 0.023	3.002 ± 0.022	3.084 ± 0.021	3.151 ± 0.02	3.22 ± 0.019	3.273 ± 0.018	–	3.342 ± 0.016
303.15 K	2.582 ± 0.022	2.65 ± 0.021	2.717 ± 0.02	2.787 ± 0.02	2.847 ± 0.019	2.904 ± 0.018	–	–	3.002 ± 0.015
313.15 K	2.158 ± 0.019	2.207 ± 0.019	2.257 ± 0.018	2.307 ± 0.017	2.353 ± 0.016	–	–	2.451 ± 0.014	2.458 ± 0.014
323.15 K	1.796 ± 0.017	–	–	–	1.955 ± 0.015	1.989 ± 0.014	2.012 ± 0.014	–	2.046 ± 0.013

CCCCCCCl + C=C(C)C(=O)OC
303.15 K, 101 kPa
Conditions	viscosity [mPa·s]
x2 = 0.1343	0.6215 ± 0.0063
x2 = 0.1947	0.6053 ± 0.0062
x2 = 0.3625	0.5729 ± 0.0061
x2 = 0.4962	0.5511 ± 0.0059
x2 = 0.6029	0.5375 ± 0.0059
x2 = 0.8144	0.5199 ± 0.0058
x2 = 0.8988	0.5152 ± 0.0058

CC(=O)c1ccc(Cl)cc1 + C=CC#N
308.15 K, 101 kPa
Conditions	viscosity [mPa·s]
x1 = 0.0547	0.3753 ± 0.0041
x1 = 0.1146	0.4278 ± 0.0045
x1 = 0.1793	0.4934 ± 0.0051
x1 = 0.2555	0.5751 ± 0.0058
x1 = 0.3377	0.6821 ± 0.0067
x1 = 0.4269	0.819 ± 0.0079
x1 = 0.5441	1.026 ± 0.0097
x1 = 0.6719	1.303 ± 0.012
x1 = 0.8213	1.697 ± 0.015
